The values below come from PMC9586938, “Picomolar fluorescent probes for compound affinity determination to carbonic anhydrase IX expressed in live cancer cells” (Scientific Reports, 2022).

A value given as a limit tells only on which side of the number the result lay.

What is called Kd is the equilibrium constant for the complex coming apart.

Assay [1] concerns the target T1, CAI (Homo sapiens, UniProt P00915).
T1 construct: made in house; host or cells: E. coli
In words: Thermal shift assay (TSA), recombinant CAI. In kind it is binding. Particulars: 37 °C, pH 7.0, observed (not intrinsic).

Assay [2] deals with T2, CAII (Homo sapiens, UniProt P00918).
T2 construct: made in house; host or cells: E. coli
In words: Thermal shift assay (TSA), recombinant CAII. The format is binding. The following applies: 37 °C, pH 7.0, observed (not intrinsic). Here is the method:
(§1) The binding affinities of all fluorescein-containing compounds were determined for all 12 catalytically active CA isozymes by the thermal shift assay (TSA). […] However, the SFA technique cannot determine the affinities lower than the enzyme concentration used in the assay. […] In addition, we used isothermal titration calorimetry (ITC), the standard assay to determine affinity and enthalpy of protein–ligand binding. […] Therefore, ITC was used only to determine the enthalpy of interaction and confirm the ordering of compound affinities.
(§2) All twelve catalytically active human CA isozymes were prepared recombinantly as previously described. Isozymes CAIX, CAXII, and CAXIV were the catalytic domains of the proteins[14],[38]. All isozymes were expressed in E. coli except CAIX that has been prepared in mammalian cells. The proteins were chromatographically purified on ion-exchange or benzene sulfonamide containing affinity columns. Protein MW was confirmed by mass spectrometry with 1 Da precision as predicted from gene sequence.
(§3) Compound affinities for the twelve catalytically active CA isozymes were determined by the thermal shift assay as previously described[30],[39]. Protein solutions containing 1,8-anilinonaphthalenesulfonate fluorescent probe were heated from 25 to 100 °C at a rate of one degree per minute while following the fluorescence of the probe. The temperature scanning curves provided the melting temperature Tm of the protein. The Tm has a distinct dependence on the concentration of a compound. Stronger binders shift the Tm to a greater extent than the weak binders. The Tm dependencies on compound concentration were fit to obtain the affinity Kd[40].

In assay [3] the target is T3, CAIII (Homo sapiens, UniProt P07451).
T3 construct: made in house; host or cells: E. coli
In words: Thermal shift assay (TSA), recombinant CAIII. The format is binding. Particulars: 37 °C, pH 7.0, observed (not intrinsic). As for the experimental part: as §1, §2, §3

The target of assay [4] is T4, CAIV (Homo sapiens, UniProt P22748).
T4 construct: made in house; host or cells: E. coli
In words: Thermal shift assay (TSA), recombinant CAIV. In kind it is binding. The following applies: 37 °C, pH 7.0, observed (not intrinsic).

The target of assay [5] is T5, CAVB (Homo sapiens, UniProt Q9Y2D0).
T5 construct: made in house; host or cells: E. coli
In words: Thermal shift assay (TSA), recombinant CAVB. In kind it is binding. The following applies: 37 °C, pH 7.0, observed (not intrinsic).

The target of assay [6] is T6, CAVI (Homo sapiens, UniProt P23280).
T6 construct: made in house; host or cells: E. coli
In words: Thermal shift assay (TSA), recombinant CAVI. The following applies: 37 °C, pH 7.0, observed (not intrinsic). The format is binding. As for the experimental part: as §1, §2, §3

Assay [7] deals with T7, CAVII (Homo sapiens, UniProt P43166).
T7 construct: made in house; host or cells: E. coli
In words: Thermal shift assay (TSA), recombinant CAVII. In kind it is binding. The following applies: 37 °C, pH 7.0, observed (not intrinsic).

In assay [8] the target is T8, CAXII (Homo sapiens, UniProt O43570).
T8 construct: Isozymes CAIX, CAXII, and CAXIV were the catalytic domains of the proteins; made in house; host or cells: E. coli
In words: Thermal shift assay (TSA), recombinant CAXII. The following applies: 37 °C, pH 7.0, observed (not intrinsic). The format is binding. As for the experimental part: as §1, §2, §3

Assay [9] concerns the target T9, CAXIV (Homo sapiens, UniProt Q9ULX7).
T9 construct: Isozymes CAIX, CAXII, and CAXIV were the catalytic domains of the proteins; made in house; host or cells: E. coli
In words: Thermal shift assay (TSA), recombinant CAXIV. The format is binding. The following applies: 37 °C, pH 7.0, observed (not intrinsic).

Assay [10] concerns the target T10, CAIX expressed on HeLa cells (Homo sapiens, UniProt Q16790).
T10 construct: recombinant CAIX and endogenous CAIX expressed on the cell surface; endogenous in cells; host or cells: HeLa (WT), grown under hypoxia (1% O2)
In words: Fluorescein-labeled compound dosing to hypoxia-grown WT HeLa cells (Morrison single-site model). The format is cell-based. As for the experimental part: (§4) HeLa cell culture was grown in 12-well plates, either under hypoxia (1% O2) or under normoxia (21% O2), for 70 to 76 h. The medium was removed. Then 200 µL of serially diluted compound (twelve twofold steps) in the FB medium, usually starting at 80 nM (80, 40, 20, …, 0 nM), was added and incubated at 37 ℃ under normoxia in the CO2 incubator for 20 min (2 or 5 min in some experiments where specified). Then the compound solution was removed and the cells were washed 3 times for 1.5–2 min with 400 µL of PBS at RT. Then 180 µL of TrypLe express enzyme (ThermoFisher) was added to each well and incubated in CO2 incubator for 5 min to 10 min until the cells deattached from the surface. After addition of 20 µL of Defined Trypsin Inhibitor solution (ThermoFisher), cells were resuspended by pipetting and 150 µL of the suspension from each well were transferred to black Thermo Scientific™ Nunc MicroWell 96-Well Optical-Bottom Plates for fluorescence and absorbance measurements. The fluorescence was recorded at 485 nm excitation and 520 nm emission wavelengths in the plate reader (Synergy HTX, BioTek). The absorbance was recorded at 650 nm to measure the optical density of the cell suspension.
(§5) The compound solution was prepared by weighing 3–5 mg of a purified compound and dissolving in DMSO at 10 mM concentration. The 1 mM compound stock in DMSO was prepared by taking 10 µL of 10 mM stock and adding to 90 µL DMSO. The 10 µM compound stock was prepared by taking 10 µL of 1 mM compound stock in DMSO and adding 990 µL of the FB medium (this stock contained 1% of DMSO). Then 80 nM compound solution was prepared by taking 10 µL of 10 µM solution and adding 1.24 mL of the FB medium and placed to the first Eppendorf tube. Then 300 µL of FB medium were added to the Eppendorf tubes 2 to 12. A serial dilution was performed by taking 300 µL of solution from tube 1 to 2, then from 2 to 3 and so on while mixing vigorously at each step. No solution was transferred to the last tube thus it contained only FB medium and no compound. Then 200 µL from 12 tubes were transferred to the 12 wells of cell culture-containing 12-well plate, starting from the lowest concentration.
Application of fluorescently labeled ligand GZ19-32 to cancer cells expressing CAIX will stain the cells in dose-dependent manner. The fraction of saturation increases from 0 to 1. The fraction of bound GZ19-32 (f) is equal to the molar concentration of bound GZ19-32 per molar concentration of total available CAIX, the so-called total protein Pt . f=GZ19-32bound/Pt
Upon GZ19-32 dosing, the observed fluorescence signal F can be modeled to change from the minimal background signal ( Fmin ) to maximal saturated value ( Fmax ): F=Fmin+Fmax-Fminf […]

For assay [11], the system named is HeLa CAIX-KO and normoxia-grown WT HeLa cells. In words: Fluorescein-labeled compound dosing to CAIX-KO and normoxia-grown HeLa cells (non-specific binding). In kind it is cell-based, human. Here is the method:
as §4, §5
This equation was fit to the dosing curves of several fluorescently-labeled ligands to both the cells grown in hypoxia and in normoxia, both to the WT and CRISPR-Cas9 CAIX knockout cells. The cells bound both the GZ19-32 and GZ20-40 ligands that differed only in the length of the linker and both contained the same head-group. […] Furthermore, the ligands that had their sulfonamide amino group substituted with the methyl completely abandoned their capability of binding CAIX in this concentration region. The binding was also abolished for the CAIX-KO HeLa cells.

Assay [12] addresses T11, CAIX on live HeLa cells (Homo sapiens, UniProt Q16790).
T11 construct: recombinant CAIX and endogenous CAIX expressed on the cell surface; endogenous in cells; host or cells: HeLa (WT), grown under hypoxia (1% O2)
In words: Fluorescence microscopy (widefield, SRRF/TIRF) of live HeLa cells stained with fluorescein-labeled compounds. The following applies: 10 nM; for staining of live HeLa cells grown under hypoxia: 5 min. The format is cell-based.

T1 sequence (P00915 whole entry): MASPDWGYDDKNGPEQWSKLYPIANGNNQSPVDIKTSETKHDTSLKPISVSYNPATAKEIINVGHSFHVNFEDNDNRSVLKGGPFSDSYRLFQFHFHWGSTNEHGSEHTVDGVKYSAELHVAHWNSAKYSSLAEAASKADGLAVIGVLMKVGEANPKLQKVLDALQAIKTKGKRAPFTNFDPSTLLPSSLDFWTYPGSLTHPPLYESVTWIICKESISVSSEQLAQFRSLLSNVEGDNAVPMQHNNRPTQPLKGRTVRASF
T5 sequence (Q9Y2D0 34-317): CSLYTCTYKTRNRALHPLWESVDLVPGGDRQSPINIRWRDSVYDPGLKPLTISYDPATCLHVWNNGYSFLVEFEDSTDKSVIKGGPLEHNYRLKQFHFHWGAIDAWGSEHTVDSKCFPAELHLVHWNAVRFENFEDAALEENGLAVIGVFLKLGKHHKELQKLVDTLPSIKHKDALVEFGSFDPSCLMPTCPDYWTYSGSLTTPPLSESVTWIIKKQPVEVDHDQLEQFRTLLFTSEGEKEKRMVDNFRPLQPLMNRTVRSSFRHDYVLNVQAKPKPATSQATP
T3 sequence (P07451 whole entry): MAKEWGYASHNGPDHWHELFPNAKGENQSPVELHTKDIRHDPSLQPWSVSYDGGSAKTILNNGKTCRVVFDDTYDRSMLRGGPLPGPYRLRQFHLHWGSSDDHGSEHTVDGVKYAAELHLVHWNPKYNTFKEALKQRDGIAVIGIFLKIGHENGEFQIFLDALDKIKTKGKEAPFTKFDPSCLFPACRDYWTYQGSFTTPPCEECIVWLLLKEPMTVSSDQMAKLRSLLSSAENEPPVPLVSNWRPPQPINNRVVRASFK
T8 sequence (O43570 30-289 limits assumed): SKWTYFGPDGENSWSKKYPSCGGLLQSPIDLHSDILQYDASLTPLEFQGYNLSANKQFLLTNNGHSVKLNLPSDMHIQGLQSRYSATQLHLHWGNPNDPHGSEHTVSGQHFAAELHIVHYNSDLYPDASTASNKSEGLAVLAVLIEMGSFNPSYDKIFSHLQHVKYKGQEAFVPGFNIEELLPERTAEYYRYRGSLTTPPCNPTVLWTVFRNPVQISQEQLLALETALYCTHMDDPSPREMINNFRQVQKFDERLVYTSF
T7 sequence (P43166 whole entry): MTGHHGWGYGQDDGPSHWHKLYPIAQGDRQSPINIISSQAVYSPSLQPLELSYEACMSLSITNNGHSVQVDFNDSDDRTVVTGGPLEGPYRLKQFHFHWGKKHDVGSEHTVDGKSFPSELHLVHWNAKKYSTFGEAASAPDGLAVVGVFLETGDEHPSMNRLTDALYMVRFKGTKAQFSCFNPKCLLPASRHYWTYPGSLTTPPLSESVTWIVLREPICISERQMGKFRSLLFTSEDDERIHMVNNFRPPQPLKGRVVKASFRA
T4 sequence (P22748 19-312): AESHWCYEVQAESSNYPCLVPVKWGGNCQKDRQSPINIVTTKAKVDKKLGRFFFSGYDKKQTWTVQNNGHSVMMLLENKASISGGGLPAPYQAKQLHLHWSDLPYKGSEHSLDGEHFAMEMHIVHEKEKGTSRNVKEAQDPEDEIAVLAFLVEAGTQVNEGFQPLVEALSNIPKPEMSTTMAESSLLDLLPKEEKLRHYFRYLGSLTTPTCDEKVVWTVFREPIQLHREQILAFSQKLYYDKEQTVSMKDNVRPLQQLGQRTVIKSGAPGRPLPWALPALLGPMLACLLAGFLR
T6 sequence (P23280 18-308): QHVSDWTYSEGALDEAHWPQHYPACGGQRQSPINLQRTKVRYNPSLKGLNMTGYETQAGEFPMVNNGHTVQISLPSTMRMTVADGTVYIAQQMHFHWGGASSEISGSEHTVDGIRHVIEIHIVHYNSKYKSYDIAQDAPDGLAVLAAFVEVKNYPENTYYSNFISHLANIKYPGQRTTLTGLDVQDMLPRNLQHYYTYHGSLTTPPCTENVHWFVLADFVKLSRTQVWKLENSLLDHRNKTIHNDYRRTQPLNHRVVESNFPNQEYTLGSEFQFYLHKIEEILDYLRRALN
T9 sequence (Q9ULX7 20-278 limits assumed): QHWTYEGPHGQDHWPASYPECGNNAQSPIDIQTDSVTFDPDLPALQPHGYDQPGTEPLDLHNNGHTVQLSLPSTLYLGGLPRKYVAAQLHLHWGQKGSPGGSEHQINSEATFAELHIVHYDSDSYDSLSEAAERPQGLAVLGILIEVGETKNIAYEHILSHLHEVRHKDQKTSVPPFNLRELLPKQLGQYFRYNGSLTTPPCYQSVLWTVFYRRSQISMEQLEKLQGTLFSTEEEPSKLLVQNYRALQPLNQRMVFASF

As for “3-((2-(cyclooctylamino)-3,5,6-trifluoro-4-(methylsulfonyl)phenyl)sulfonyl)-N-(3',6'-dihydroxy-3-oxo-3H-spiro[isobenzofuran-1,9'-xanthen]-5-yl)propanamide and 3-((3-(cyclooctylamino)-2,5,6-trifluoro-4-(methylsulfonyl)phenyl)sulfonyl)-N-(3',6'-dihydroxy-3-oxo-3H-spiro[isobenzofuran-1,9'-xanthen]-5-yl)propanamide [GZ20-37]”, the dissociation constant Kd in assay [1], in [2], in [3], in assay [4], in assay [5] and in assay [6] was more than 100000 nM each time. The dissociation constant Kd in assay [7], in assay [8] and in [9] was more than 100000 nM throughout. Also, the “binding to hypoxia-grown HeLa cells in the nM concentration region” value in assay [10] (same conditions as GZ19-32, up to about 100 nM) was “did not bind”. Besides, the “non-specific binding to cells” value in [11] (micromolar concentration range, Fig. 9B, 9C) is reported as “bound cells in the micromolar concentration range”. Moreover, the “staining of live HeLa cells grown under hypoxia” value in [12] is given as “did not bind”.
As for `NS(=O)(=O)c1c(F)c(F)c(S(=O)(=O)CCC(=O)Nc2ccc3c(c2)C(=O)OC32c3ccc(O)cc3Oc3cc(O)ccc32)c(NC2CCCCCCC2)c1F` [GZ19-32, 3-((2-(cyclooctylamino)-3,5,6-trifluoro-4-sulfamoylphenyl)sulfonyl)-N-(3',6'-dihydroxy-3-oxo-3H-spiro[isobenzofuran-1,9'-xanthen]-5-yl)propanamide], the Kd amounted to 500 nM in assay [1]; 14 nM in [2]; 1670 nM in assay [3]; 100 nM in assay [4]; 13 nM in assay [5]; 330 nM in assay [6]. The Kd in assay [7] worked out at 5 nM; in assay [8], 1.3 nM; in assay [9], 3.3 nM. Further, the “number of bound molecules per HeLa cell” value in assay [10] (approximately 80 h of growth under hypoxia) is on record as “exceeded 1 million”. Besides, in assay [10] (hypoxia-grown HeLa cells), the “concentration at which saturation was reached” value is “approximately 10 nM”. Moreover, the “concentration above which compound binds normoxia-grown WT and CAIX-KO HeLa cells” value in [11] (5 min incubation, Fig. 9A) was more than 100 nM. Further, the “fluorescence of compound bound to HeLa CAIX-KO cells” value in [11] (CAIX-KO cells grown under hypoxia, 10 nM to 100 nM) is “did not show an increase in fluorescence”. The “staining of live HeLa cells grown under hypoxia” value in assay [12] is on record as “labeled the cell membrane”. The “Manders overlap coefficient M1, colocalization with H7 CAIX antibody” value in assay [12] (hypoxia-grown live HeLa cells) was determined as 0.82. In addition, the “Manders overlap coefficient M2, colocalization with H7 CAIX antibody” value in assay [12] (hypoxia-grown live HeLa cells) stood at 0.65. Further, the “object based spot collocalization with H7 CAIX antibody” value in [12] (hypoxia-grown live HeLa cells) is recorded as 0.75. The “pixel based Person's correlation coefficient, colocalization with H7 CAIX antibody” value in assay [12] (hypoxia-grown live HeLa cells) amounted to 0.82. For the same molecule, the “Pearson co-localization coefficient with CAXII-selective 1B10 antibody” value in assay [12] (hypoxia-grown live HeLa cells, SRRF/TIRF) amounted to 0.02.
